This is an account of results in ChEMBL document CHEMBL3751720, “Investigating molecular dynamics-guided lead optimization of EGFR inhibitors” (Bioorg Med Chem, 2016).

SMILES strings stand for the structures.

The target of the test is Epidermal growth factor receptor (Homo sapiens) (UniProt P00533). Kind of test: Inhibition of wild-type EGFR (unknown origin) assessed as enzyme residual activity at 10 uM for 60 mins by microplate scintillation counter in presence of [gamma-33P]-ATP.
Chain of Epidermal growth factor receptor (Homo sapiens) (P00533 whole entry): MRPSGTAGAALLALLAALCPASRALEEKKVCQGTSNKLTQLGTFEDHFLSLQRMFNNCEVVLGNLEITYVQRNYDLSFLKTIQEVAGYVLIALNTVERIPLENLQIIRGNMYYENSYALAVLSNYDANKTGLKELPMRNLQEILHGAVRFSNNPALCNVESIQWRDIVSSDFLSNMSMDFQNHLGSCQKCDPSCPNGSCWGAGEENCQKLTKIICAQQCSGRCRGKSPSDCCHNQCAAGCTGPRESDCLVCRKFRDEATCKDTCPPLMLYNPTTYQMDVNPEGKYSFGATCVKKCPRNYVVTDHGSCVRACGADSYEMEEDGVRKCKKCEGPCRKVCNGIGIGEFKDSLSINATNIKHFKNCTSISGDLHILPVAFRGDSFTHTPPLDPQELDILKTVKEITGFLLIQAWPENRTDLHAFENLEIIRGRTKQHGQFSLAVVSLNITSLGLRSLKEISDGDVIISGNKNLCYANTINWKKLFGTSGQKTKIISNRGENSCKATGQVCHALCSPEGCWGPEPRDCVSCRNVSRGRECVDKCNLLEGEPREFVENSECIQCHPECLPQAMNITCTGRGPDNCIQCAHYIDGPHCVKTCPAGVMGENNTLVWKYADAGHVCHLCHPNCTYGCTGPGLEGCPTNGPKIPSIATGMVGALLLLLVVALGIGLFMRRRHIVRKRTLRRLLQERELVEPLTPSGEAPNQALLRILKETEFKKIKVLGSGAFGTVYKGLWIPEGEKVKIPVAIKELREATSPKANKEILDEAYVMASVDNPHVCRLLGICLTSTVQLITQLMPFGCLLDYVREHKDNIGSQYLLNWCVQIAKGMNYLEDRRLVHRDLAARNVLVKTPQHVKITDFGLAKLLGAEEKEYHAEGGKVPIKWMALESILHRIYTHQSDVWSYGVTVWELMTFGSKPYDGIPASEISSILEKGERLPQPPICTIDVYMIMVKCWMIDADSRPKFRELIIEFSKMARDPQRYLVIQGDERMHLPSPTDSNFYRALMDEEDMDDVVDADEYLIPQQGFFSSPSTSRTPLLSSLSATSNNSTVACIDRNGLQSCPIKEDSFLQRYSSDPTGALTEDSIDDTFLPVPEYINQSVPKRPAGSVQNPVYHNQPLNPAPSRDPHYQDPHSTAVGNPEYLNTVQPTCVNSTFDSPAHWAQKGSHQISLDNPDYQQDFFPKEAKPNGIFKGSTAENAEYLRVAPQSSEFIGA
For the compound `Cn1c(=O)c(-c2c(Cl)cccc2Cl)cc2c(N)nc(Nc3ccccc3)nc21`, the Activity amounted to 14%.
Take `Cn1c(=O)c(-c2c(F)cccc2C(F)(F)F)cc2c(N)nc(Nc3ccccc3)nc21`: the Activity stood at 61%.
On to `Cn1c(=O)c(-c2ccccc2)cc2c(N)nc(Nc3ccccc3)nc21`, for which the Activity turned out to be 49%.
For the compound `Cn1c(=O)c(-c2c(Br)cccc2Br)cc2c(N)nc(Nc3ccccc3)nc21`, the Activity amounted to 3%.
